Results as given in ChEMBL document CHEMBL3091276, “Design, synthesis and evaluation of 6-(4-((substituted-1H-1,2,3-triazol-4-yl)methyl)piperazin-1-yl)phenanthridine analogues as antimycobacterial agents” (Bioorg Med Chem Lett, 2013).
Converted amounts (≈) assume the structure as drawn.

How the values were obtained:
[1] = tested on: Mycobacterium tuberculosis; assay: Antimycobacterial activity in Mycobacterium tuberculosis H37Rv after 5 days by Alamar Blue assay; format: functional; conditions: 120 h
[2] = Cytotoxicity against mouse RAW264.7 cells at 50 ug/ml by MTT assay relative to control; format: cell-based; conditions: read-out: INH
RAW264.7 = assay: Cytotoxicity against mouse RAW264.7 cells by MTT assay; format: cell-based
[3] = Selectivity index, ratio of IC50 for mouse RAW264.7 cells to MIC99 for Mycobacterium tuberculosis H37Rv; format: toxicity; conditions: read-out: Selectivity Index

In the case of `c1ccc(Cn2cc(CN3CCN(c4nc5ccccc5c5ccccc45)CC3)nn2)cc1`, the MIC99 [1] is reported as 50 µg/mL (≈ 115 µM).

Compound `CCc1ccc(-n2cc(CN3CCN(c4nc5ccccc5c5ccccc45)CC3)nn2)cc1` has an MIC99 [1] of 50 µg/mL (≈ 111 µM).

For `Cc1ccc(-n2cc(CN3CCN(c4nc5ccccc5c5ccccc45)CC3)nn2)c(C)c1`, the MIC99 [1] was 12.5 µg/mL (≈ 27.9 µM).

Work on `c1ccc2c(c1)nc(N1CCN(Cc3cn(-c4ccc5c(c4)OCO5)nn3)CC1)c1ccccc12` yielded an MIC99 [1] of 50 µg/mL (≈ 108 µM).

`COc1cccc(-n2cc(CN3CCN(c4nc5ccccc5c5ccccc45)CC3)nn2)c1` showed an MIC99 [1] of 50 µg/mL (≈ 111 µM).

With `COc1ccc(-n2cc(CN3CCN(c4nc5ccccc5c5ccccc45)CC3)nn2)cc1` the cytotoxicity at 50 ug/ml [2] was 19.2%, the MIC99 [1] was 3.12 µg/mL (≈ 6.94 µM) and the IC50 (RAW264.7) was > 125 µg/mL. For the same compound, the selectivity ratio [3] was > 15.

For `Clc1ccc(-n2cc(CN3CCN(c4nc5ccccc5c5ccccc45)CC3)nn2)cc1Cl`, the MIC99 [1] was 50 µg/mL (≈ 102 µM).

With `Clc1ccc(-n2cc(CN3CCN(c4nc5ccccc5c5ccccc45)CC3)nn2)cc1` the MIC99 [1] was 25 µg/mL (≈ 54.9 µM).

For `Clc1ccccc1-n1cc(CN2CCN(c3nc4ccccc4c4ccccc34)CC2)nn1`, the MIC99 [1] was 12.5 µg/mL (≈ 27.5 µM).

In the case of `Clc1cccc(-n2cc(CN3CCN(c4nc5ccccc5c5ccccc45)CC3)nn2)c1`, the cytotoxicity at 50 ug/ml [2] is reported as 12.6%, the MIC99 [1] is reported as 3.12 µg/mL (≈ 6.87 µM) and the IC50 (RAW264.7) is reported as > 150 µg/mL. The selectivity ratio [3] was > 20.

In the case of `Brc1ccccc1-n1cc(CN2CCN(c3nc4ccccc4c4ccccc34)CC2)nn1`, the MIC99 [1] is reported as 50 µg/mL (≈ 100 µM).

`Brc1ccc(-n2cc(CN3CCN(c4nc5ccccc5c5ccccc45)CC3)nn2)cc1` showed an MIC99 [1] of 12.5 µg/mL (≈ 25 µM).

Compound `Fc1ccc(-n2cc(CN3CCN(c4nc5ccccc5c5ccccc45)CC3)nn2)cc1Cl` has an MIC99 [1] of 50 µg/mL (≈ 106 µM).

For `Fc1ccc(-n2cc(CN3CCN(c4nc5ccccc5c5ccccc45)CC3)nn2)cc1F`, the MIC99 [1] was 25 µg/mL (≈ 54.8 µM).

With `Fc1ccc(-n2cc(CN3CCN(c4nc5ccccc5c5ccccc45)CC3)nn2)cc1` the MIC99 [1] was 25 µg/mL (≈ 57 µM).

Work on `FC(F)(F)c1cccc(-n2cc(CN3CCN(c4nc5ccccc5c5ccccc45)CC3)nn2)c1` yielded an MIC99 [1] of 12.5 µg/mL (≈ 25.6 µM).

For `O=[N+]([O-])c1cccc(-n2cc(CN3CCN(c4nc5ccccc5c5ccccc45)CC3)nn2)c1`, the MIC99 [1] was 6.25 µg/mL (≈ 13.4 µM).

In the case of `O=S(=O)(c1ccccc1)n1cc(CN2CCN(c3nc4ccccc4c4ccccc34)CC2)nn1`, the cytotoxicity at 50 ug/ml [2] is reported as 5.82%, the MIC99 [1] is reported as 1.56 µg/mL (≈ 3.22 µM) and the IC50 (RAW264.7) is reported as > 425 µg/mL. The selectivity ratio [3] was > 125.

`Cc1ccc(S(=O)(=O)n2cc(CN3CCN(c4nc5ccccc5c5ccccc45)CC3)nn2)cc1` gave an MIC99 [1] of 12.5 µg/mL (≈ 25.1 µM).

Work on `NNC(=O)c1ccncc1` [ISONIAZID] yielded an MIC99 [1] of 0.36 µg/mL (≈ 2.63 µM).

For `CO[C@H]1/C=C/O[C@@]2(C)Oc3c(C)c(O)c4c(O)c(c(/C=N/N5CCN(C)CC5)c(O)c4c3C2=O)NC(=O)/C(C)=C\C=C\[C@H](C)[C@H](O)[C@@H](C)[C@@H](O)[C@@H](C)[C@H](OC(C)=O)[C@@H]1C` [RIFAMPIN], the MIC99 [1] was 0.02 µg/mL (≈ 0.0243 µM).
